Laboratory results taken from patent publication US20050026951A1, “Methods of therapeutic treatment using retinoids with reduced drug interaction” (Allergan, Inc., priority 2003, published 2005).

Experiments:
[1] = oral; cited from earlier work
sebaceous glands = conditions: severe acne; cited from earlier work
[2] = relative to tamoxifen in the absence of bexarotene; cited from earlier work
patients = assay: Two 24-week placebo-controlled safety studies of oral tazarotene plus 16- to 24-week dose-response evaluations; format: in vivo, human; conditions: 4.5 mg orally once daily
Experimental: Two multicenter, double-blind, randomized, placebo-controlled 24-week studies of identical design are conducted to evaluate the safety of oral tazarotene. In addition, 16- to 24-week dose-response evaluations are performed.
In the two safety trials, the incidence of adverse side effects with a 4.5 mg dose administered orally once daily is compared to the incidence of the same side effects with a placebo. […] The majority of these were mild in severity and typical of adverse effects associated with oral retinoids.

[3] = test system: patients with moderate to very severe plaque psoriasis; assay: Open-label extension study of oral tazarotene in plaque psoriasis non-responders; format: in vivo, human; conditions: 4.5 mg once daily, extension treatment period, across both groups
Experimental: Two multicenter, double-blind, placebo-controlled studies ware conducted to evaluate the efficacy and safety of oral tazarotene (4.5 mg once daily) in patients with moderate to very severe plaque psoriasis. […] Efficacy evaluations include overall lesional assessment (OLA), percent body surface area involvement, global response to treatment, plaque elevation, scaling, and erythema. OLA is graded on a 6-point scale (0=none, 1=minimal, 2=mild, 3=moderate, 4=severe, 5=very severe).

[4] = test system: patients having nodulocystic acne; assay: Two placebo-controlled dose-ranging safety studies of oral tazarotene in nodulocystic acne; format: in vivo, human; conditions: for Emotional lability, patients: all cases mild
Experimental: Two placebo-controlled dose-ranging studies are conducted to evaluate the safety of oral tazarotene in patients having nodulocystic acne. In the first study, patients receive orally administered tazarotene at daily doses of 0.4 mg to 2.8 mg in 96 (71+25) patients (12 weeks treatment plus 12 weeks post-treatment). In the second study, daily doses of 0.75 mg to 6 mg tazarotene are administered to 181 patients (24 weeks treatment plus 12 weeks post-treatment).

[5] = test system: patients with severe nodulocystic acne; assay: Multicenter double-blind placebo-controlled study of oral tazarotene in severe nodulocystic acne; format: in vivo, human
Description: A multicenter, double-blind, randomized, placebo-controlled parallel-group study is undertaken to determine the efficacy of orally administered tazarotene in treating severe nodulocystic acne.
In addition, washout periods for other medications for this study are: 1 week for vitamin A supplements >5000 IU; 2 weeks for topical anti-acne medications (e.g., retinoids, azelaic acid, benzoyl peroxide); 2 weeks for topical or systemic antibiotic therapy that may alter the course of acne; and 6 months for systemic retinoids.
Patients are randomized to receive placebo or oral tazarotene (0.75, 1.5, 3, or 6 mg), in a 1:1:1:1:1 ratio once daily for 24 weeks. After this, the patients are followed without treatment for an additional 12 weeks. Patients discontinuing from the treatment period due to adverse effects or lack of efficacy are eligible for entry into the post-treatment phase.
In the study, overall acne severity is rated as: none (no inflammatory acne lesions); mild (few to several papules or pustules, no nodulocystic lesions); moderate (several to many papules or pustules, few to several nodulocystic lesions); and severe (numerous or extensive papules or pustules, many, for example, at least about 5 or at least about 10, nodulocystic lesions).
Treatment success is defined as at least moderate (about 50%) improvement on the following 7-point global response scale: • 0=completely cleared • 1=almost cleared (about 90% improvement) • 2=marked response (about 75% improvement) • 3=moderate response (about 50% improvement) • 4=slight response (about 25% improvement) • 5=condition unchanged • 6=condition worsened
In this study, facial nodulocystic lesion count includes lesions greater than 5 mm in size. Facial papular/pustular lesion count includes lesions less than or equal to 5 mm in size. Facial non-inflammatory lesion count includes open and closed comedones.
Sebum output is assessed every 4 weeks at selected centers using the Sebutape® patches, sold by Cuderm Corporation. Urinalysis, chemistry, and hematology values are monitored. Bone formation and resorption assessments (serum bone alkaline phosphatase and serum amino terminal telopeptides, respectively) at selected centers are monitored.
Bone mineral density of spine and proximal femur at selected centers is monitored. Ligament calcification or osteophyte formation (lateral X-ray of the cervical and thoracic spine, and ankle calcaneous) is monitored. Epiphyseal growth plate closure (internal oblique X-ray of the ankle in patients less than or equal to 21 years old) is monitored.

[6] = Food effect on pharmacokinetics of tazarotenic acid after 6.3 mg oral tazarotene (high-fat breakfast vs 8-10 hour fast); format: in vivo, human; conditions: fed (high-fat meal) vs fasted
Experimental: For the purposes of this application, the bioavailability of a drug may be based on the human pharmokinetic parameters of maximum blood concentration (Cmax) and Area under the blood concentration-time curve (AUC).
The LC-MS/MS test for simultaneous detection of tazarotene and tazarotenic acid may be run as follows. One ml of plasma (EDTA-treated) is diluted with 1.0 ml of water. Diluted plasma is extracted using solid phase extraction (SPE) on a C18 cartridge. The eluate is evaporated, reconstituted in a water/methanol-based mobile phase, and injected onto a 4.6×50 mm, 3 μm pore size C-8 reverse phase high pressure liquid chromatography (HPLC) column (Agilent, Wilmington, Del.). Compounds are gradient-eluted at 1.2 mL/min and detected using an API 3000 triple quadrupole mass spectrometer with an Atmospheric Pressure Chemical Ionization (APCI) source (PE-Sciex, Concord, Ontario, Canada). […] The specific precursor-product ion pair monitored are m/z 352→324 for tazarotene, m/z […] for the tazarotene internal standard, m/z 324→294 for tazarotenic acid, and m/z 331→298 for the tazarotenic acid internal standard. The lower limit of quantitation at assay range tested is 0.1 ng/mL, with a coefficient of variation and deviation from nominal concentration of <15%.

RXRs = assay: RXR activation; format: cell-based
Description: (§1) The selection of a retinoid component useful in accordance with the present invention can be accomplished using straightforward, conventional testing and/or assays, such as the transactivation assays set forth in Evans et al., U.S. Pat. No. 5,217,867; 5,262,300; 5,310,662; and 5,906,920, each of which is hereby incorporated in its entirety herein by reference, which are well known in the art. Such testing and/or assays can identify suitable useful retinoid components without undue experimentation.
In other aspects of the present invention, one or more compounds, for example, from a screening library of compounds, which are known to have or have been tested, using conventional and well known techniques, and found to have useful RAR activity, can be individually or collectively tested for RXR activity using conventional and well known testing procedures. See, for example, the above-noted Evans et al. patents, in particular U.S. Pat. No. 5,906,920.

RARs = assay: RAR activation and subtype selectivity; format: cell-based
Description: as §1
Other well known and straightforward test methods and/or assays may be employed to determine the selectivity or specificity of an RAR active compound to RAR-alpha, RAR-beta and RAR-gamma. For example, using conventional and well known assays, for example, such as set forth in Klein et al. U.S. Pat. No. 5,776,699, the disclosure of which is incorporated in its entirety herein by reference, and/or the above-noted Evans et al. patents, the selectively or specificity of a compound to RAR-alpha, RAR-beta and RAR-gamma can be determined. Based on the results of such assays, one can determine whether or not a compound is useful in accordance with one or more aspects of the present invention.

Q: Which “Bioavailability in the presence of food” value [1] does the source give for `CC1=C(/C=C/C(C)=C/C=C/C(C)=C\C(=O)O)C(C)(C)CCC1` [isotretinoin] here?
A: Its value is “increased in the presence of food”.

Q: What about the “Decrease in sebum secretion rate” value (sebaceous glands) of the same compound?
A: Its value is “about 90%”.

Q: With `COc1cc(C)c(/C=C/C(C)=C/C=C/C(C)=C/C(=O)O)c(C)c1C` [acitretin] as the compound, how does the “Bioavailability in the presence of food” value [1] read?
A: The value was “increased in the presence of food”.

Q: What does the source list for `C=C(c1ccc(C(=O)O)cc1)c1cc2c(cc1C)C(C)(C)CCC2(C)C` [bexarotene]?
A: Bioavailability in the presence of food [1]: increased in the presence of food; Plasma concentration of coadministered tamoxifen [2]: reduced plasma concentration of tamoxifen

Q: Which results are given for `CCOC(=O)c1ccc(C#Cc2ccc3c(c2)C(C)(C)CCS3)nc1` [tazarotene]?
A: Incidence of altered hormone levels (elevated TSH and T4, decreased T4, abnormal thyroid function test) (patients): 0%; Incidence of hypertriglyceridemia, hypercholesterolemia, abnormal liver function tests, increased ALT, increased AST, desquamation, eye dryness, alopecia (patients; vs placebo): essentially the same incidence with oral tazarotene as with placebo; Incidence of arthralgia [3]: 20%; Incidence of asthenia [3]: 6%; Incidence of back pain [3]: 11%; Incidence of cheilitis [3]: 70%; Incidence of dry skin [3]: 25%; Incidence of headache [3]: 11%; Incidence of hypertriglyceridemia [3]: 6%; Incidence of infection [3]: 10%; Incidence of myalgia [3]: 15%; Severe dry skin ([4]; 3 mg and 6 mg groups): No patient; Emotional lability, patients ([4]; 3 mg group (1 patient)): 3%; Depression, patients ([4]; 3 mg group (3 patients: 2 mild, 1 severe)): 8%; Emotional lability, patients ([4]; 6 mg group (5 patients)): 14%; Changes in urinalysis, chemistry, or hematology measures (liver function tests, triglycerides, total cholesterol, HDL cholesterol) ([4]; 0.4 to 6 mg daily): no consistent dose-related clinically significant changes; Ligament calcification, osteophyte formation, changes in serum bone alkaline phosphatase, serum amino terminal telopeptides, bone density ([4]; 0.4 to 6 mg daily): not associated with any clinically significant; Patients withdrawing from either study due to adverse events ([4]; all groups of both studies incl. placebo (7/277)): 2.5%; Patients withdrawing due to adverse events, treatment period ([5]; 0.75 mg group (2/35)): 6%; Patients withdrawing due to adverse events, treatment period ([5]; 1.5 mg group (0/37)): 0%; Patients withdrawing due to adverse events, treatment period ([5]; 3 mg group (2/37)): 5%; Patients withdrawing due to adverse events, treatment period ([5]; 6 mg group (1/36)): 3%; Reduction of overall acne severity vs placebo ([5]; 6 mg, from week 16 until end of post-treatment phase (p ≦0.01)): significantly more than placebo; Abnormalities in liver function test results or elevated triglycerides, total cholesterol, or HDL cholesterol ([5]; 0.75 to 6 mg once daily, 24 weeks): not generally associated; Sebum secretion (Sebutape method) relative to placebo ([5]; 0.75 to 6 mg once daily, assessed every 4 weeks): does not substantially reduce sebum secretion

Q: Which results are given for `CC1(C)CCSc2ccc(C#Cc3ccc(C(=O)O)cn3)cc21` [tazarotenic acid]?
A: Cmax average ratio (test/reference) of tazarotenic acid ([6]; Day 0): 1.00; Cmax average ratio (test/reference) of tazarotenic acid ([6]; Day 9): 0.829; Activation of the RXRs (RXRs): does not activate; RAR subtype selectivity (RARs): selectivity for RAR-β and RAR-γ

Q: For `CC1(C)CC[S+]([O-])c2ccc(C#Cc3ccc(C(=O)O)cn3)cc21` (stereo not drawn) [AGN 190844], which “Activation of the RXRs” value (RXRs) is on record?
A: Its value is “does not activate”.

Q: What about the “Activation of the RARs” value (RARs) of the same compound?
A: Its value is “does not activate”.
